Laboratory results: patent US20210395217A1, “PESTICIDALLY ACTIVE AZOLE-AMIDE COMPOUNDS” (SYNGENTA PARTICIPATIONS AG, priority 2018, published 2021)

Columns and labels:
Assay type in all cases: in vivo
Chilo suppressalis = assay: Example B3: Chilo suppressalis (striped rice stem borer), artificial diet, L2 larvae; conditions: 144 h, application rate of 200 ppm, 6 days after infestation, read-out: control in at least one of the three categories (mortality, anti-feedant effect, or growth inhibition)
Method: Example B3: Chilo suppressalis (Striped Rice Stem Borer)
24-well microtiter plates with artificial diet were treated with aqueous test solutions prepared from 10′000 ppm DMSO stock solutions by pipetting. After drying, the plates were infested with L2 larvae (6-8 per well). The samples were assessed for mortality, anti-feeding effect, and growth inhibition in comparison to untreated samples 6 days after infestation. Control of Chilo suppressalis by a test sample is given when at least one of the categories mortality, anti-feedant effect, and growth inhibition is higher than the untreated sample.

Spodoptera littoralis [1] = assay: Example B7: Spodoptera littoralis (Egyptian cotton leaf worm), cotton leaf discs sprayed, L1 larvae; conditions: foliar, 72 h, application rate of 200 ppm, 3 days after infestation, read-out: control in at least one of the three categories (mortality, anti-feedant effect, or growth inhibition)
Method: Example B7: Spodoptera littoralis (Egyptian Cotton Leaf Worm)
Cotton leaf discs were placed onto agar in 24-well microtiter plates and sprayed with aqueous test solutions prepared from 10′000 ppm DMSO stock solutions. After drying the leaf discs were infested with five L1 larvae. The samples were assessed for mortality, anti-feeding effect, and growth inhibition in comparison to untreated samples 3 days after infestation. Control of Spodoptera littoralis by a test sample is given when at least one of the categories mortality, anti-feedant effect, and growth inhibition is higher than the untreated sample.

Diabrotica balteata = assay: Example B1: Diabrotica balteata (corn root worm), maize sprouts sprayed, L2 larvae; conditions: 96 h, application rate of 200 ppm, 4 days after infestation, read-out: control in at least one of the two categories (mortality or growth inhibition)
Method: Example B1: Diabrotica balteata (Corn Root Worm)
Maize sprouts placed onto an agar layer in 24-well microtiter plates were treated with aqueous test solutions prepared from 10′000 ppm DMSO stock solutions by spraying. After drying, the plates were infested with L2 larvae (6 to 10 per well). The samples were assessed for mortality and growth inhibition in comparison to untreated samples 4 days after infestation.
The following compounds gave an effect of at least 80% control in at least one of the two categories (mortality or growth inhibition) at an application rate of 200 ppm: […]

Myzus persicae [2] = assay: Example B9: Myzus persicae (green peach aphid), sucrose solution, 96-well; conditions: 120 h, application rate of 50 ppm, 5 days after infestation, 96-well plates
Source text: Example B9: Myzus persicae (Green Peach Aphid)
Test compounds prepared from 10′000 ppm DMSO stock solutions were applied by a liquid handling robot into 96-well microtiter plates and mixed with a sucrose solution. Parafilm was stretched over the 96-well microtiter plate and a plastic stencil with 96 holes was placed onto the plate. Aphids were sieved into the wells directly onto the Parafilm. The infested plates were closed with a gel blotting card and a second plastic stencil and then turned upside down. The samples were assessed for mortality 5 days after infestation.

Plutella xylostella [3] = assay: Example B4: Plutella xylostella (diamond back moth), artificial diet, 24-well, eggs; conditions: 192 h, application rate of 200 ppm, 8 days after infestation, 24-well plates, read-out: control in at least one of the two categories (mortality or growth inhibition)
Method: Example B4: Plutella xylostella (Diamond Back Moth)
24-well microtiter plates with artificial diet were treated with aqueous test solutions prepared from 10′000 ppm DMSO stock solutions by pipetting. After drying, Plutella eggs were pipetted through a plastic stencil onto a gel blotting paper and the plate was closed with it. The samples were assessed for mortality and growth inhibition in comparison to untreated samples 8 days after infestation. The following compounds gave an effect of at least 80% control in at least one of the two categories (mortality or growth inhibition) at an application rate of 200 ppm: […]

Myzus persicae [4] = assay: Example B6: Myzus persicae (green peach aphid), intrinsic activity, sucrose solution, 24-well; conditions: 120 h, test rate of 12 ppm, 5 days after infestation
Source text: Example B6: Myzus Persicae (Green Peach Aphid): Intrinsic Activity
Test compounds prepared from 10′000 ppm DMSO stock solutions were applied by pipette into 24-well microtiter plates and mixed with sucrose solution. The plates were closed with a stretched Parafilm. A plastic stencil with 24 holes was placed onto the plate and infested pea seedlings were placed directly on the Parafilm. The infested plate was closed with a gel blotting paper and another plastic stencil and then turned upside down. The samples were assessed for mortality 5 days after infestation.

Plutella xylostella [5] = assay: Example B10: Plutella xylostella (diamondback moth), artificial diet, 96-well, eggs; conditions: 216 h, application rate of 500 ppm, 9 days after infestation, 96-well plates
Method: Example B10: Plutella xylostella (Diamondback Moth)
96-well microtiter plates containing artificial diet were treated with aqueous test solutions, prepared from 10′000 ppm DMSO stock solutions, by a liquid handling robot. After drying, eggs (˜30 per well) were infested onto a netted lid which was suspended above the diet. The eggs hatch and L1 larvae move down to the diet. The samples were assessed for mortality 9 days after infestation.
The following compounds gave an effect of at least 80% average mortality at an application rate of 500 ppm: […]

Euschistus heros = assay: Example B2: Euschistus heros (neotropical brown stink bug), soybean leaves sprayed, N2 nymphs; conditions: 120 h, application rate of 200 ppm, 5 days after infestation, read-out: control in at least one of the two categories (mortality or growth inhibition)
Method: Example B2: Euschistus heros (Neotropical Brown Stink Bug)
Soybean leaves on agar in 24-well microtiter plates were sprayed with aqueous test solutions prepared from 10′000 ppm DMSO stock solutions. After drying the leaves were infested with N2 nymphs. The samples were assessed for mortality and growth inhibition in comparison to untreated samples 5 days after infestation.
The following compounds gave an effect of at least 80% control in at least one of the two categories (mortality or growth inhibition) at an application rate of 200 ppm: F2, F4, F6, F8, F12, F16.

Spodoptera littoralis [6] = assay: Example B8: Spodoptera littoralis (Egyptian cotton leaf worm), uptake by lettuce roots from agar, eggs; conditions: 144 h, test rate of 12.5 ppm, 6 days after infestation, compound absorbed by lettuce roots, read-out: control in at least one of the three categories (mortality, anti-feeding, or growth inhibition)
Source text: Example B8: Spodoptera Littoralis (Egyptian Cotton Leaf Worm)
Test compounds were applied by pipette from 10′000 ppm DMSO stock solutions into 24-well plates and mixed with agar. Lettuce seeds were placed onto the agar and the multi well plate was closed by another plate which contained also agar. After 7 days the compound was absorbed by the roots and the lettuce grew into the lid plate. The lettuce leaves were then cut off into the lid plate. Spodoptera eggs were pipetted through a plastic stencil onto a humid gel blotting paper and the lid plate was closed with it. The samples were assessed for mortality, anti-feedant effect and growth inhibition in comparison to untreated samples 6 days after infestation.
The following compounds gave an effect of at least 80% control in at least one of the three categories (mortality, anti-feeding, or growth inhibition) at a test rate of 12.5 ppm: […]

Myzus persicae [7] = assay: Example B5: Myzus persicae (green peach aphid), feeding/contact activity, sunflower leaf discs; conditions: foliar, 144 h, application rate of 200 ppm, 6 days after infestation
Method: Example B5: Myzus persicae (Green Peach Aphid): Feeding/Contact Activity
Sunflower leaf discs were placed onto agar in a 24-well microtiter plate and sprayed with aqueous test solutions prepared from 10′000 ppm DMSO stock solutions. After drying, the leaf discs were infested with an aphid population of mixed ages. The samples were assessed for mortality 6 days after infestation.

Cc1nc(C(C)NC(=O)c2cc(C(F)F)cc(C(F)(F)F)c2)n(-c2ccc(C#N)cn2)n1 (centres unmarked) [Compound F9, N-[1-[2-(5-cyano-2-pyridyl)-5-methyl-1,2,4-triazol-3-yl]ethyl]-3-(difluoromethyl)-5-(trifluoromethyl) benzamide]
≥ 80%: percent control (mortality, anti-feedant effect or growth inhibition) at 200 ppm (Chilo suppressalis) | percent control (mortality, anti-feedant effect or growth inhibition) at 200 ppm (Spodoptera littoralis [1]) | percent control (mortality or growth inhibition) at 200 ppm (Diabrotica balteata) | mortality at 50 ppm (Myzus persicae [2]) | percent control (mortality or growth inhibition) at 200 ppm (Plutella xylostella [3]) | mortality at 12 ppm (Myzus persicae [4])

CC(NC(=O)c1cc(SC(F)(F)F)cc(C(F)(F)F)c1)c1nc(C2CC2)nn1-c1ccc(C#N)cn1 (centres unmarked) [Compound F12, N-[1-[2-(5-cyano-2-pyridyl)-5-cyclopropyl-1,2,4-triazol-3-yl]ethyl]-3-(trifluoromethyl)-5-(trifluoromethylsulfanyl) benzamide]
≥ 80%: percent control (mortality, anti-feedant effect or growth inhibition) at 200 ppm (Chilo suppressalis) | percent control (mortality, anti-feedant effect or growth inhibition) at 200 ppm (Spodoptera littoralis [1]) | percent control (mortality or growth inhibition) at 200 ppm (Diabrotica balteata) | percent control (mortality or growth inhibition) at 200 ppm (Plutella xylostella [3]) | mortality at 500 ppm (Plutella xylostella [5]) | percent control (mortality or growth inhibition) at 200 ppm (Euschistus heros)

CC(c1ncnn1-c1ccc(C#N)cn1)N(C)C(=O)c1cc(C(F)(F)F)cc(C(F)(F)F)c1 (centres unmarked) [Compound F2, N-[1-[2-(5-cyano-2-pyridyl)-1,2,4-triazol-3-yl]ethyl]-N-methyl-3,5-bis(trifluoromethyl) benzamide]
≥ 80%: percent control (mortality, anti-feedant effect or growth inhibition) at 200 ppm (Chilo suppressalis) | percent control (mortality, anti-feeding or growth inhibition) at 12.5 ppm (Spodoptera littoralis [6]) | percent control (mortality, anti-feedant effect or growth inhibition) at 200 ppm (Spodoptera littoralis [1]) | percent control (mortality or growth inhibition) at 200 ppm (Diabrotica balteata) | mortality at 50 ppm (Myzus persicae [2]) | percent control (mortality or growth inhibition) at 200 ppm (Plutella xylostella [3]) | mortality at 500 ppm (Plutella xylostella [5]) | percent control (mortality or growth inhibition) at 200 ppm (Euschistus heros) | mortality at 12 ppm (Myzus persicae [4])

Cc1nc(C(C)NC(=O)c2cc(Br)cc(C(F)(F)F)c2)n(-c2ccc(C#N)cn2)n1 (centres unmarked) [Compound F8, 3-bromo-N-[1-[2-(5-cyano-2-pyridyl)-5-methyl-1,2,4-triazol-3-yl]ethyl]-5-(trifluoromethyl) benzamide]
≥ 80%: percent control (mortality, anti-feedant effect or growth inhibition) at 200 ppm (Spodoptera littoralis [1]) | percent control (mortality or growth inhibition) at 200 ppm (Diabrotica balteata) | mortality at 50 ppm (Myzus persicae [2]) | percent control (mortality or growth inhibition) at 200 ppm (Plutella xylostella [3]) | percent control (mortality or growth inhibition) at 200 ppm (Euschistus heros) | mortality at 12 ppm (Myzus persicae [4])

Cc1nc(C(C)NC(=O)c2cc(OC(F)F)cc(C(F)(F)F)c2)n(-c2ccc(C#N)cn2)n1 (centres unmarked) [Compound F6, N-[1-[2-(5-cyano-2-pyridyl)-5-methyl-1,2,4-triazol-3-yl]ethyl]-3-(difluoromethoxy)-5-(trifluoromethyl) benzamide]
≥ 80%: percent control (mortality, anti-feedant effect or growth inhibition) at 200 ppm (Spodoptera littoralis [1]) | percent control (mortality or growth inhibition) at 200 ppm (Diabrotica balteata) | mortality at 50 ppm (Myzus persicae [2]) | percent control (mortality or growth inhibition) at 200 ppm (Plutella xylostella [3]) | percent control (mortality or growth inhibition) at 200 ppm (Euschistus heros) | mortality at 12 ppm (Myzus persicae [4])

Cc1nc(C(C)N(C)C(=O)c2cc(C(F)(F)F)cc(C(F)(F)F)c2)n(-c2ccc(C#N)cn2)n1 (centres unmarked) [Compound F16, N-[1-[2-(5-cyano-2-pyridyl)-5-methyl-1,2,4-triazol-3-yl]ethyl]-N-methyl-3,5-bis(trifluoromethyl) benzamide]
≥ 80%: percent control (mortality, anti-feedant effect or growth inhibition) at 200 ppm (Chilo suppressalis) | percent control (mortality, anti-feedant effect or growth inhibition) at 200 ppm (Spodoptera littoralis [1]) | percent control (mortality or growth inhibition) at 200 ppm (Diabrotica balteata) | mortality at 50 ppm (Myzus persicae [2]) | percent control (mortality or growth inhibition) at 200 ppm (Plutella xylostella [3]) | mortality at 200 ppm (Myzus persicae [7]) | percent control (mortality or growth inhibition) at 200 ppm (Euschistus heros) | mortality at 12 ppm (Myzus persicae [4])

CC(c1ncnn1-c1ncc(C#N)cn1)N(CC1CC1)C(=O)c1cc(C(F)(F)F)cc(C(F)(F)F)c1 (centres unmarked) [Compound F4, N-[1-[2-(5-cyanopyrimidin-2-yl)-1,2,4-triazol-3-yl]ethyl]-N-(cyclopropylmethyl)-3,5-bis(trifluoromethyl) benzamide]
≥ 80%: percent control (mortality, anti-feedant effect or growth inhibition) at 200 ppm (Spodoptera littoralis [1]) | percent control (mortality or growth inhibition) at 200 ppm (Diabrotica balteata) | percent control (mortality or growth inhibition) at 200 ppm (Euschistus heros)
